Tests used:
UmKin5 = molecular target: T1, UmKin5 (Mycosarcoma maydis, UniProt A0A0D1DQH0); test: cryo-EM structure; conditions: microtubule-bound (bovine brain tubulin, paclitaxel); 5 mM AMPPNP, 1 mM MgCl2, pH 6.8; nucleotide binding site; overall resolution 4.3 Å, motor ~5-7 Å
T1 construct: gene UMAG_10678; motor domain residues 73-456 without N-terminal extension; N-terminal His6 tag removed by TEV protease; E. coli BL21*(DE3); monomeric

N+UmKin5 = molecular target: T2, N+UmKin5 (Mycosarcoma maydis, UniProt A0A0D1DQH0); test: cryo-EM structure; conditions: microtubule-bound (bovine brain tubulin, paclitaxel); 5 mM AMPPNP, 1 mM MgCl2, pH 6.8; nucleotide binding site; overall resolution 4.5 Å, motor ~5-7 Å
T2 construct: gene UMAG_10678; motor domain with 72-residue N-terminal extension, residues 1-456; N-terminal His6 tag removed by TEV protease; E. coli BL21*(DE3); monomeric

Q: For `Nc1ncnc2c1ncn2[C@@H]1O[C@H](COP(=O)(O)OP(=O)(O)NP(=O)(O)O)[C@@H](O)[C@H]1O` [AMPPNP], which cryo-EM structure (UmKin5) is on record?
A: Its cryo-EM structure is “Strong density is visible at the nucleotide binding site consistent with the presence of AMPPNP”.

Q: And the cryo-EM structure (N+UmKin5)?
A: Its cryo-EM structure is “Both constructs bound the MT lattice in the presence of the non-hydrolysable ATP analogue AMPPNP”.

Reference: publication PMC6722389, “Cryo-EM structure of the Ustilago maydis kinesin-5 motor domain bound to microtubules” (Journal of Structural Biology, 2019)
